Source: patent publication US7576177B2, “Hsp peptides and analogs for modulation of immune responses via antigen presenting cells” (Andromeda Biotech Ltd., priority 2002, dated 2009)
Like-named read-outs stand apart in the source and are kept apart here.

Assays:
[1] = tested on: peripheral blood mononuclear cells cultured with GM-CSF and IL4 (dendritic cells); assay: Peripheral blood derived dendritic cells: secreted cytokines (IP-10, IL-8) and cell surface antigens (CD83, CD86); type: cell-based, human; conditions: for IL-8 / IP-10: overnight
Protocol: The effect of the compositions of the present invention on peripheral blood derived dendritic cells, was tested according to a protocol described by Re, F. and Strominger, J. L. 2001. Toll-like receptor 2 (Tlr2) and Tlr4 differentially activate human dendritic cells. (J Biol Chem 276: 37692-9). According to this method immature dendritic cells derived from human peripheral blood are used. The outcome after incubating the cells with tested molecules is different if the stimulation is through the Toll 4 receptor or the Toll 2 receptor. According to the authors, Toll 2 signaling by stimulation with zymosan is associated with a Th2 kind of response (exemplified by IL-8) and Toll 4 signaling, such as obtained by LPS stimulation (exemplified by IP-10), with a Th1 type of response. The compositions of the present invention were tested using a similar assay system in order to check which stimulation type they induce. […] The increase in CD86 expression after exposure of APCs to Hsps or Hsp derived peptides is important since CD86 (B7.2) is an essential component of the immunological synapse formed between T cells and APC. This synapse consists of CD80 and CD86 on the side of the APC and CD28 and CD40 on the side of the T cell. T cell recognition of peptide on APC without the concurrent expression of CD86 gives rise to anergy instead of a T cell response. Therefore in order to produce a response all components must be present.
The assay was based on the protocol described by Re, F. and Strominger, J. L. 2001. Toll-like receptor 2 (Tlr2) and Tlr4 differentially activate human dendritic cells. (J. Biol Chem 276: 37692-9).
Peripheral blood mononuclear cells were prepared from leucocytes from blood lots obtained from the blood bank. The cells were plated at 10^8 cells/10 ml/Petri dish in RPMI medium including 10% FCS and allowed to adhere at 37° C. for 2 hours. At the end of this time, the non-adherent cells were washed off the plates with PBS and the adherent cells resuspended in fresh medium as before. The cells were then cultured for at least 8 days with the addition of GM-CSF and IL4 with the medium changed every 4 days. After this time, the cells were harvested and cultured overnight with LPS, zymosan or p277(Val^6-Va^11). The next day, the supernatant was collected for assay of the secreted cytokines (IP-10 and IL-8) and the cells were harvested for investigation of the cell surface antigens (CD83, CD86). CD83 is an antigen characteristic of dendritic cells. […] The second marker, CD86 (B7.2) is characteristic of mature dendritic cells. The marker CD86 is an essential component of the immunological synapse formed between T cells and APC. This synapse consists of CD80 and CD86 on the side of the APC and CD28 and CD40 on the side of the T cell. This is of course in addition to the specific recognition between the T cell receptor and peptide held in the MHC of the APC. T cell recognition of peptide on APC without the concurrent expression of CD86 gives rise to anergy instead of a T cell response.

[2] = tested on: peripheral blood monocytes; assay: Peripheral blood monocytes: IP-10 after direct stimulation or preincubation then LPS; type: cell-based, human
Protocol: Peripheral blood mononuclear cells were prepared from leucocytes of blood lots obtained from the blood bank. The cells were plated at a concentration of 4×10^6 cell/ml/well in 24 well tissue culture dishes in medium containing 10% fetal calf serum. The cells were allowed to adhere for 2 hours at 37° C. After this time, non-adherent cells were washed away and the adherent cells incubated in fresh medium containing 10% human AB serum for 6-8 days, changing the medium after 4 days. These culture conditions were reported to give rise to monocytes.
For stimulation the medium was replaced with medium without serum. For preincubation, the cells were exposed overnight to the tested compounds at various concentrations and then LPS was added. The supernatant was collected after a further overnight incubation and tested for various cytokines by ELISA assays.

THP-1 cells = tested on: THP-1 cells
Protocol: Alternatively, APCs exposed to Hsp peptides and analogs are tested for direct influence on cytokine production. For example, pre-monocyte like derived cells (e.g. human monocytic cell line THP-1), which can be differentiated to monocytes by treatment with 100 nM phorbol ester (12-O-tetradecanoylphorbol-13-acetate, PMA) for 72 hours, are used. […] Differentiated cells are preincubated with the tested compounds or incubated after PMA treatment following subsequent stimulus with LPS. Secreted amounts of cytokines (such as TNF, and IP-10) are measured. Another example for direct measuring of cytokines secreted from APCs exposed to Hsp peptides and analogs involve measurement of cytokines (e.g. IP-10 and IL-8) secretion in human peripheral blood mononuclear cells cultured first with GM-CSF and IL4 and then with LPS, zymosan or tested peptide. These cells are also used for investigation of cell surface antigens (e.g. CD83 and CD86) indicating their maturation.
The human cell line THP-1 was used for this assay. These cells are pre-monocyte like derived from acute monocytic leukemia and can be differentiated to monocytes by treatment with 100 nM phorbol ester (12-O-tetradecanoylphorbol-13-acetate, PMA) for 72 hours. During this time the cells change morphology from round cells growing in suspension to larger, flat, adherent cells.

mouse monocyte line J774 = assay: Secretion of oxygen free radicals (oxidative burst) from mouse monocyte line; type: cell-based; conditions: J774, FIG. 5
[3] = differentiated THP-1 cells incubated with peptide
[4] = preincubation, subsequent stimulus with 10 ng/ml LPS

Sequence: VLGGGVALLRVIPALDSLTPANED [p277(Val^6-Val^11)]
- IL-8 secretion (in words) ([1]; overnight stimulation): resulted in IL-8 secretion
- IP-10 secretion (in words) ([1]; overnight stimulation): no IP-10 secretion
- maturation: percentage of cells stained with anti-CD86 ([1]; overnight stimulation, FIG. 3): increase of maturation
- IL-8 ([1]; stimulus 0.5 ng/ml): 2368 pg/mL
- IP-10 ([1]; stimulus 0.5 ng/ml): -1 pg/mL
- IP-10 ([1]; stimulus 5 ng/ml): 2 pg/mL
- IL-8 ([1]; stimulus 50 ng/ml): 2574 pg/mL
- IP-10 ([1]; stimulus 50 ng/ml): 39 pg/mL
- IP-10 ([1]; stimulus 0.5 μg/ml): 21 pg/mL
- amount of IP-10 produced in response to stimulus with LPS after preincubation ([2]; overnight preincubation, then LPS, FIG. 4): did increase the amount of IP-10
- IP-10 after direct stimulation ([2]; peripheral blood monocytes, no preincubation, FIG. 4): did not give rise directly to II-10
- IP-10 in response to hsp60 after preincubation ([2]; preincubation with p277(Val^6-Val^11), then hsp60): did not give rise to IP-10
- direct IP-10 secretion (THP-1 cells; [3]): did not secrete TNF, or IP-10 directly
- direct TNF secretion (THP-1 cells; [3]): did not secrete TNF
- % stimulation of IP-10 secretion (THP-1 cells; preincubation with 0.0128 ng/ml, then 10 ng/ml LPS): −48%
- % stimulation of IP-10 secretion (THP-1 cells; preincubation with 0.064 ng/ml, then 10 ng/ml LPS): 52%
- % stimulation of IP-10 secretion (THP-1 cells; preincubation with 0.32 ng/ml, then 10 ng/ml LPS): 61%
- % stimulation of IP-10 secretion (THP-1 cells; preincubation with 1.6 ng/ml, then 10 ng/ml LPS): 46%
- % stimulation of IP-10 secretion (THP-1 cells; preincubation with 8 ng/ml, then 10 ng/ml LPS): 77%
- % stimulation of IP-10 secretion (THP-1 cells; preincubation with 40 ng/ml, then 10 ng/ml LPS): 141%
- % stimulation of IP-10 secretion (THP-1 cells; preincubation with 200 ng/ml, then 10 ng/ml LPS): 45%
- % stimulation of IP-10 secretion (THP-1 cells; preincubation with 1000 ng/ml, then stimulation with 10 ng/ml LPS): 45%
- amount of IP-10 secreted after preincubation and LPS (in words) (THP-1 cells; [4]): increased amount of IP-10 secreted
- amount of TNF after preincubation and LPS (THP-1 cells; [4]): not significantly affected
- inhibition of the oxidative burst (secretion of oxygen free radicals) (mouse monocyte line J774): effective
- direct stimulation of TNFα (cell lines): ineffective
- inhibition of TNFα secreted as a result of stimulation by LPS or hsp60 (cell lines): ineffective
